Data: paper PMC1664607 (PLoS Medicine, 2006)

Experiments:
[1] = target: T1, CYP2E1 (Homo sapiens, UniProt P05181); experiment: Chlorzoxazone 6-hydroxylation in human liver microsomes; type: in vitro ADME; settings: 100 μM; 100 μM chlorzoxazone
T1 construct: Standard incubation mixtures of 0.5 ml contained microsomal protein (0.1–0.5 mg); from tissue; host or cells: pooled human liver microsomes (ten donors)

[2] = target: T2, CYP2A6 (Homo sapiens, UniProt P11509); experiment: Coumarin 7-hydroxylation in human liver microsomes; type: in vitro ADME; settings: 100 μM; 2 μM coumarin
T2 construct: Standard incubation mixtures of 0.5 ml contained microsomal protein (0.1–0.5 mg); from tissue; host or cells: pooled human liver microsomes (ten donors)
T2 sequence (P11509 1-494): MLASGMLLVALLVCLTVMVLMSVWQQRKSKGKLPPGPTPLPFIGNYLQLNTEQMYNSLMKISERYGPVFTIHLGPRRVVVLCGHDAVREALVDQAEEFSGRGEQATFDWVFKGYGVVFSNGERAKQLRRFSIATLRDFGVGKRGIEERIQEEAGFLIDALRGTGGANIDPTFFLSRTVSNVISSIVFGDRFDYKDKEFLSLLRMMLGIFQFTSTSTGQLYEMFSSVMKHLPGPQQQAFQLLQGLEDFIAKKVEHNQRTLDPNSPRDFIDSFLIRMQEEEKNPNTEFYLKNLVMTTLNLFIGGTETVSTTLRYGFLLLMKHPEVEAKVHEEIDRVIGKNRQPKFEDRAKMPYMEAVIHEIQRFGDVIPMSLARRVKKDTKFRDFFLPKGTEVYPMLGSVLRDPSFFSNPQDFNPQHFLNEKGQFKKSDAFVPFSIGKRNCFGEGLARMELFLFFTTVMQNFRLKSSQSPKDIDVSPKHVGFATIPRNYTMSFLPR

T1 sequence (P05181 whole entry): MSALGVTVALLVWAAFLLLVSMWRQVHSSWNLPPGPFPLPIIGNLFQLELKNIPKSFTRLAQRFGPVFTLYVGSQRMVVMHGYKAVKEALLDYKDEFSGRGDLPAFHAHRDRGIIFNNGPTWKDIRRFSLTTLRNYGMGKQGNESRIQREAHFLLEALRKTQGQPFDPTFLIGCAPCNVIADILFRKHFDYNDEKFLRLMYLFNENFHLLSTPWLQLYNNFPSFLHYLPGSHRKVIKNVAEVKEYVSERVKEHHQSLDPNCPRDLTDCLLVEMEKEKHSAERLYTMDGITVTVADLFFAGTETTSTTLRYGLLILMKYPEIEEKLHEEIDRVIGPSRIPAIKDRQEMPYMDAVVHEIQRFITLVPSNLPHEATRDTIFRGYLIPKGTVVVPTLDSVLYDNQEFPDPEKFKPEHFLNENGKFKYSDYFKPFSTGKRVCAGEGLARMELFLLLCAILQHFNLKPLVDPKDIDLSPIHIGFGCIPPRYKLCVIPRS

How did the “Percent of Control” value [1] turn out when `CCN(CC)C(=S)S` [Diethyldithiocarbamate, diethyldithiocarbamate] was run?
The value was 55.0% of Control.

And the “Percent of Control” value [2]?
The value was 38.2% of Control.
